# Experiments:
# gastric epithelium = experiment: method of Goldemberg, ulceration by pylorus ligature (ulcerogenic effect); type: in vivo, Sprague-Dowley rats; details: for ulceration score Increase: increase over control (distilled water) score 2.0, mg/Kg: phenylbutazone 75, acid 47, acetylsalicylic acid 200; for ulceration Score: score 0=no hemorrhagic spots to 6=perforated ulcer, control (distilled water) 2.0, mg/Kg: phenylbutazone 75, acid 47, acetylsalicylic acid 200, phthalidyl ester 69; for ulcerogenic effect (in words): summary statement, b45 relative to the respective acid
# Protocol: 2 To compare the effect on ulcer of the new compound regarding to other antiinflammatory drugs, the method of Goldemberg (ulceration by pylorus ligature) (Arzneim. Forsch. (Drug Res.) 26, 3, 1976) to Sprague-Dowley rats (400-600 g of weight), was performed. The ulceration of the gastric epithelium was observed and evaluated in accordance to the following score; 0=no hemorrhagic spots; 1=some isolated hemorrhagic spots; 2=redness of the gastric epithelium; 3=1 to 5 small ulcers with a diameter greater than 3 mm; 6=perforated ulcer.
# [1] = background statement; cited from earlier work
# [2] = background statement; cited from earlier work; remark: listed apart in the source
# [3] = system: carraghenine-provoked aedema of the paw of rat; experiment: carraghenine-provoked aedema of the paw of rat (antiinflammatory activity); type: in vivo; details: for % AEDEMA INHIBITION 3 hr / % AEDEMA INHIBITION 4 hr: rat paw, TNA 47 mg/Kg, PTP 69 mg/Kg (equivalent to 47 mg of the acid)
# From the text: 1 By means of the test involving the carraghenine-provoked aedema of the paw of rat (Winter, C. A., Proceeding Soc. Exp. Biol. Med., III, 544, 1962) the antiinflammatory activities of phthalidyl 2-(3'-trifluormethylanilino)-pyridine-3-carboxylate (PTP) and 2(3'-trifluormethylanilino) nicotinic acid (TNA), were compared.
# oral tolerability = type: in vivo
SMILES,ulceration score Increase (gastric epithelium),ulceration Score (gastric epithelium),ulcer provocation (in words) [1],antiinflammatory activity (in words) [2],% AEDEMA INHIBITION 3 hr [3] [%],% AEDEMA INHIBITION 4 hr [3] [%],antiinflammatory activity compared with the acid (in words) ([3]; relative to 2(3'-trifluormethylanilino) pyridine-3-carboxylic acid),anti-inflammatory activity (in words) ([3]; summary statement),ulcerogenic effect (in words) (gastric epithelium),ulcerogenic effect (in words) (gastric epithelium; listed as phthalidyl ester),oral tolerability (in words) (oral tolerability)
CCCCC1C(=O)N(c2ccccc2)N(c2ccccc2)C1=O [Phenylbutazone],2.3,4.3,–,–,–,–,–,–,–,–,–
CC(=O)Oc1ccccc1C(=O)O [Acetylsalicylic acid],1.9,3.9,–,–,–,–,–,–,–,–,–
"O=C(O)c1cccnc1Nc1cccc(C(F)(F)F)c1 [TNA, 2(3'-trifluormethylanilino) nicotinic acid]",1.3,3.3,provoke ulcers,relevant antiinflammatory activity,25.6,31.8,–,–,–,–,–
"O=C1OC(OC(=O)c2cccnc2Nc2cccc(C(F)(F)F)c2)c2ccccc21 (stereo not drawn) [PTP, phthalidyl 2-(3'-trifluormethylanilino)-pyridine-3-carboxylate]",–,2.0,–,–,32,37.8,antiinflammatory activity greater than the acid,anti-inflammatory activity,less ulcerogenic than respective acid,without ulcerogenic effect,orally well tolerated

# Reference: patent US4168313A, “Phthalidyl 2-(3'-trifluoromethyl-anilino)-pyridine-3-carboxylate and its salts” (priority 1978, dated 1979)
